Experimental data taken from patent US20080213410A1, “ANTI-HUMAN PAPILLOMAS VIRUS TOPICAL COMPOSITION” (priority 2007, published 2008).

System: human papillomavirus (HPV) genital warts
Experiment: 15 months treatment of 90 infected patients, number of recurrent warts (Example 1)
Format: in vivo
Description: The composition, to be applied topically or transdermally to the skin and mucous membranes, is of high interest because it triggers little or no side-effects, very little irritation, no restrictive length of application, no impact on non-infected skin, can heal surface and/or deep flesh warts and prevent the recurrence of outbreaks. The treatment consists in topically administering the composition to the HPV infected skin and mucous membranes of patients. Such physiological regions consists of, in particular, the skin of the penis, vulva (area outside the vagina), anus, scrotum, groin, or thigh and in the linings of the vagina, cervix, or rectum presenting the virus related warts. […] Two types of warts can be found in patients: acute or chronic warts. The first kind, the acute wart, can be treated by simply swiping the surface of the skin or mucous membrane with a swab, previously impregnated with the composition, and gently rubbing the skin in order to allow penetration of the composition in its deepest layers. The second kind is the chronic wart, which requires a more invasive type of treatment. Indeed, the treatment is either effected by applying to the skin or mucous surface to treat a transdermal patch, constantly and regularly diffusing the composition through the area it covers, or by using a microlet, which uses a needle rapidly piercing the skin and injecting the composition deeply in the flesh.
Posology: Application of the topical composition is effected 1 time per week through swiping of the region with a swab containing the composition in the case of an acute wart or through the use of a transdermal patch or microlet in the case of a chronic wart.
Results: Table 1 comprises the results of a 15 months treatment with the composition of the present invention on a total of 90 infected patients. Table 2 comprises the results of a 15 months treatment with liquid nitrogen on a total of 90 infected patients. The compiled data consists of the number of recurrent warts that had still developed after a 15 months treatment with either the cream of the present invention or with liquid nitrogen. These records represent direct evidence that the composition of the present invention is effective, the number of warts that had still reappeared after a 15 months long treatment of the intermittent lesion and inflammation being less important with the cream than with the liquid nitrogen. Indeed, 67% of patients treated with the composition of the present invention presented a low degree of infections after the 15 months treatment (1 to 2 recurrent warts) whereas only 13% of the patients treated with the liquid nitrogen presented similar results.

N#N [liquid nitrogen]
patients presenting a low degree of infections after the 15 months treatment (1 to 2 recurrent warts) (90 patients per treatment): 13% | Number of patients with 1 to 2 recurrent warts after a 15 months treatment (90 patients, 1 to 2 warts): 12 | Number of patients with 3 to 5 recurrent warts after a 15 months treatment (90 patients, 3 to 5 warts): 49 | Number of patients with 6 to 10 recurrent warts after a 15 months treatment (90 patients, 6 to 10 warts): 29
